From patent US7183320B2, “Benzoylsulfonamides and sulfonylbenzamidines for use as antitumour agents” (Eli Lilly and Company, priority 2002, dated 2007)

Tested on: not given
Test: not given
Details: not given

melting point	SMILES
155 to 157 °C	O=C(NS(=O)(=O)c1ccc(O)cc1)c1ccc(Cl)cc1Cl [Example 117, N-[2,4-dichlorobenzoyl]-4-hydroxyphenylsulfonamide]

Tested on: HCT116 colon carcinoma cells
Test: HCT116 colon carcinoma cell growth inhibition (WST-1, 72 hr)
Type: cell-based, human
Details: 72 hr exposure
Protocol: HCT116 Colon Carcinoma Cell Growth Inhibition
HCT116 colon carcinoma cells were grown monolayer culture in RPMI 1640 medium supplemented with 10% fetal bovine serum and 1% penicillin-streptomycin (GibcoBRL, Grand Island, N.Y.). HCT116 cells in exponential growth phase were exposed to various concentrations of the test compounds at 37° C. for 72 hr in 5% carbon dioxide/air. After exposure to the agent, the cells were washed with 0.9% phosphate buffered saline. Growth inhibition was determined using WST-1 cell proliferation reagent as described above. The results are expressed as the growth fraction of treated cells compared with control cultures. Representative compounds of the present invention were tested for efficacy against the human colon HCT116 tumor cells.

IC50	SMILES
16 µM	CSc1ccc(-c2ccc(S(=O)(=O)NC(=O)c3ccc(Cl)cc3Cl)cc2)cc1 [Example 108, N-[2,4-dichlorobenzoyl]-4-(1-methylsulfanylo-phen-4-yl)phenylsulfonamide]
25.1 µM	CC(=O)c1cccc(-c2ccc(S(=O)(=O)NC(=O)c3ccc(Cl)cc3Cl)cc2)c1 [Example 109, N-[2,4-dichlorobenzoyl]-4-3′-acetyl-biphenylsulfonamide]
25.8 µM	COc1ccccc1-c1ccc(S(=O)(=O)NC(=O)c2ccc(Cl)cc2Cl)cc1 [Example 122, N-[2,4-dichlorobenzoyl]-4-(1-methoxy-phen-2-yl)phenylsulfonamide]
37.7 µM	COC(=O)c1ccc(-c2ccc(S(=O)(=O)NC(=O)c3ccc(Cl)cc3Cl)cc2)cc1 [Example 123, N-[2,4-dichlorobenzoyl]-4-(1-methoxycarbonyl-phen-4-yl)phenylsulfonamide]

Same assay, conditions: Homo sapiens, HCT-116, 72 hr exposure

IC50	SMILES
11.3 µM	O=C(NS(=O)(=O)c1ccc(C(F)(F)F)cc1)c1ccc(Cl)cc1Cl [Example 81, N-[2,4-dichlorobenzoyl]-4-trifluoromethyl-phenylsulfonamide]
12.4 µM	O=C(NS(=O)(=O)c1ccc(O)cc1)c1ccc(Cl)cc1Cl [Example 82, N-[2,4-dichlorobenzoyl]-4-hydroxyphenyl-sulfonamide]
1.6 µM	Cc1ccc(S(=O)(=O)NC(=O)c2ccc(Cl)cc2Cl)cc1 [Example 86, N-[2,4-dichlorobenzoyl]-4-methylphenylsulfonamide]
5.5 µM	CSc1ccc(S(=O)(=O)NC(=O)c2ccc(Cl)cc2Cl)cc1 [Example 87, N-[2,4-dichlorobenzoyl]-4-methylthiophenylsulfonamide]
4.8 µM	CC(C)(C)c1ccc(S(=O)(=O)NC(=O)c2ccc(Cl)cc2Cl)cc1 [Example 88, N-[2,4-dichlorobenzoyl]-4-tert-butylphenylsulfonamide]
4.8 µM	Cc1ccc(S(=O)(=O)NC(=O)c2ccc(Cl)cc2Cl)cc1Cl [Example 89, N-[2,4-dichlorobenzoyl]-3-chloro-4-methylphenylsulfonamide]
4.5 µM	Cc1cc(Cl)ccc1C(=O)NS(=O)(=O)c1cccc(Br)c1 [Example 90, N-[2-methyl-4-chlorobenzoyl]-3-bromophenylsulfonamide]
17.4 µM	O=C(NS(=O)(=O)c1ccc(Cl)c(Cl)c1)c1ccc(Cl)cc1Cl [Example 92, N-[2,4-dichlorobenzoyl]-3,4-dichlorophenylsulfonamide]
18.1 µM	Cc1cc(Cl)ccc1C(=O)NS(=O)(=O)c1ccc(Cl)cc1 [Example 93, N-[2-methyl-4-chlorobenzoyl]-4-chlorophenylsulfonamide]
3.6 µM	O=C(NS(=O)(=O)c1ccc(Br)cc1)c1ccc(Cl)cc1Cl [Example 94, N-[2,4-dichlorobenzoyl]-4-bromophenylsulfonamide]
4.3 µM	CS(=O)(=O)Oc1ccc(S(=O)(=O)NC(=O)c2ccc(Cl)cc2Cl)cc1 [Example 95, N-[2,4-dichlorobenzoyl]-4-methylsulfonyloxyphenyl-sulfonamide]
34.7 µM	O=C(NS(=O)(=O)c1ccc(OC(F)(F)F)cc1)c1ccc(Cl)cc1Cl [Example 96, N-[2,4-dichlorobenzoyl]-4-trifluoromethoxyphenyl-sulfonamide]
7 µM	COc1c(C)cc(S(=O)(=O)NC(=O)c2ccc(Cl)cc2Cl)cc1C [Example 97, N-[2,4-dichlorobenzoyl]-4-methoxy-3,5-dimethylphenylsulfonamide]
13 µM	CN(C)c1ccc(S(=O)(=O)NC(=O)c2ccc(Cl)cc2Cl)cc1 [Example 98, N-[2,4-dichlorobenzoyl]-4-dimethylaminophenyl-sulfonamide]
33.5 µM	O=C(NS(=O)(=O)c1ccc(Cl)cc1)c1ccc(C(F)(F)F)cc1C(F)(F)F [Example 99, N-[2,4-bis-trifluoromethylbenzoyl]-4-chlorophenylsulfonamide]
9.2 µM	Cc1cc(Br)ccc1C(=O)NS(=O)(=O)c1ccc(Br)cc1 [Example 100, N-[2-methyl-4-bromobenzoyl]-4-bromophenylsulfonamide]
12.4 µM	O=C(NS(=O)(=O)c1ccc(F)cc1)c1ccc([N+](=O)[O-])cc1Cl [Example 101, N-[2-chloro-4-nitrobenzoyl]-4-fluoro-phenylsulfonamide]
6.3 µM	Cc1cccc(C(=O)NS(=O)(=O)c2ccc(Cl)cc2)c1Cl [Example 102, N-[2-chloro-3-methylbenzoyl]-4-chlorophenylsulfonamide]
11.9 µM	O=C(NS(=O)(=O)c1ccc([N+](=O)[O-])cc1)c1ccc(Cl)cc1Cl [Example 103, N-[2,4-dichlorobenzoyl]-4-nitrophenylsulfonamide]
22.2 µM	Cc1cc(Cl)ccc1C(=O)NS(=O)(=O)c1ccc(Cl)c(Cl)c1 [Example 104, N-[2-methyl-4-chlorobenzoyl]-3,4-dichlorophenylsulfonamide]
14.8 µM	Cc1cc(Cl)ccc1C(=O)NS(=O)(=O)c1ccc(C(C)(C)C)cc1 [Example 105, N-[2-methyl-4-chlorobenzoyl]-4-tert-butylphenylsulfonamide]
4.6 µM	Cc1cc(Cl)ccc1C(=O)NS(=O)(=O)c1cccc(C#N)c1 [Example 106, N-[2-methyl-4-chlorobenzoyl]-3-cyanophenylsulfonamide]
15 µM	O=C(NS(=O)(=O)c1ccc(Cl)cc1)c1ccc(Cl)cc1Cl [Example 111, N-[2,4-dichlorobenzoyl]-4-chlorophenylsulfonamide]
2.8 µM	O=C(NS(=O)(=O)c1ccc(Cl)cc1)c1ccc(Br)cc1Cl [Example 112, N-[2-chloro-4-bromobenzoyl]-4-chlorophenylsulfonamide]
33.6 µM	N=C(NS(=O)(=O)c1ccc(F)c(Cl)c1)c1ccc(Cl)cc1 [Example 115, N-[3-chloro-4-fluorophenylsulfonyl]-4-chlorobenzamidine]
5.9 µM	N=C(NS(=O)(=O)c1ccc(F)c(Cl)c1)c1ccc(F)c(Cl)c1 [Example 116, N-[3-chloro-4-fluorophenylsulfonyl]-3-chloro-4-fluorobenzamidine]
24.5 µM	O=C(NS(=O)(=O)c1ccc(-c2ccco2)cc1)c1ccc(Cl)cc1Cl [Example 121, N-[2,4-dichloro-benzoyl]-4-furan-2-yl-phenylsulfonamide]
5.6 µM	O=C(NS(=O)(=O)c1ccc(-c2cccc3cccnc23)cc1)c1ccc(Cl)cc1Cl [Example 124, N-[2,4-dichlorobenzoyl]-4-quinolin-8-yl-phenylsulfonamide]
18.5 µM	O=C(NS(=O)(=O)c1ccc(-c2ccoc2)cc1)c1ccc(Cl)cc1Cl [Example 126, N-[2,4-dichlorobenzoyl]-4-fur-3-yl-phenylsulfonamide]
